Measurements reported in patent US20100105682A1, “CYCLOPROPYL-PIPERAZINE COMPOUNDS AS CALCIUM CHANNEL BLOCKERS” (priority 2006, published 2010).
Where two headings read alike, the source gives them in different places.

Target: T1, rat brain N-type calcium channel subunits (α1B+α2δ+β1b cDNA subunits) (Rattus norvegicus, UniProt Q02294)
T1 construct: expressed in transfected cells; host or cells: HEK 293 (human embryonic kidney), stably transfected; alternatively transiently transfected
Assay: N-type calcium channel block, whole cell patch clamp in HEK 293 cells
Type: cell-based
Conditions: holding potential −80 mV to +10 mV
Experimental: N-type calcium channel blocking activity was assayed in human embryonic kidney cells, HEK 293, stably transfected with the rat brain N-type calcium channel subunits (α1B+α2δ+β1b cDNA subunits). Alternatively, N-type calcium channels (α1B+α2δ+β1b cDNA subunits), L-type channels (α1C+α2δ+β1b cDNA subunits) and P/Q-type channels (α1A+α2δ+β1b cDNA subunits) were transiently expressed in HEK 293 cells. Briefly, cells were cultured in Dulbecco's modified eagle medium (DMEM) supplemented with 10% fetal bovine serum, 200 U/ml penicillin and 0.2 mg/ml streptomycin at 37 with 5% CO2. At 85% confluency cells were split with 0.25% trypsin/1 mM EDTA and plated at 10% confluency on glass coverslips. At 12 hours the medium was replaced and the cells transiently transfected using a standard calcium phosphate protocol and the appropriate calcium channel cDNA's. Fresh DMEM was supplied and the cells transferred to 28° C./5% CO2. Cells were incubated for 1 to 2 days prior to whole cell recording.
Whole cell patch clamp experiments were performed using an Axopatch 200B amplifier (Axon Instruments, Burlingame, Calif.) linked to a personal computer equipped with pCLAMP software. The external and internal recording solutions contained, respectively, 5 mM BaCl2, 10 mM MgCl2, 10 mM HEPES, 40 mM TEACl, 10 mM glucose, 87.5 mM CsCl (pH 7.2) and 108 mM CsMS, 4 mM MgCl2, 9 mM EGTA, 9 mM HEPES (pH 7.2). Currents were typically elicited from a holding potential of −80 mV to +10 mV using Clampex software (Axon Instruments). Typically, currents were first elicited with low frequency stimulation (0.067 Hz) and allowed to stabilize prior to application of the compounds. The compounds were then applied during the low frequency pulse trains for two to three minutes to assess tonic block, and subsequently the pulse frequency was increased to 0.2 Hz to assess frequency dependent block. Data were analyzed using Clampfit (Axon Instruments) and SigmaPlot 4.0 (Jandel Scientific).

[1] = low frequency stimulation 0.067 Hz (tonic block), read-out: IC50 @ 0.067 Hz
[2] = pulse frequency 0.2 Hz (frequency dependent block), read-out: IC50 @ 0.2 Hz

T1 sequence (Q02294 whole entry): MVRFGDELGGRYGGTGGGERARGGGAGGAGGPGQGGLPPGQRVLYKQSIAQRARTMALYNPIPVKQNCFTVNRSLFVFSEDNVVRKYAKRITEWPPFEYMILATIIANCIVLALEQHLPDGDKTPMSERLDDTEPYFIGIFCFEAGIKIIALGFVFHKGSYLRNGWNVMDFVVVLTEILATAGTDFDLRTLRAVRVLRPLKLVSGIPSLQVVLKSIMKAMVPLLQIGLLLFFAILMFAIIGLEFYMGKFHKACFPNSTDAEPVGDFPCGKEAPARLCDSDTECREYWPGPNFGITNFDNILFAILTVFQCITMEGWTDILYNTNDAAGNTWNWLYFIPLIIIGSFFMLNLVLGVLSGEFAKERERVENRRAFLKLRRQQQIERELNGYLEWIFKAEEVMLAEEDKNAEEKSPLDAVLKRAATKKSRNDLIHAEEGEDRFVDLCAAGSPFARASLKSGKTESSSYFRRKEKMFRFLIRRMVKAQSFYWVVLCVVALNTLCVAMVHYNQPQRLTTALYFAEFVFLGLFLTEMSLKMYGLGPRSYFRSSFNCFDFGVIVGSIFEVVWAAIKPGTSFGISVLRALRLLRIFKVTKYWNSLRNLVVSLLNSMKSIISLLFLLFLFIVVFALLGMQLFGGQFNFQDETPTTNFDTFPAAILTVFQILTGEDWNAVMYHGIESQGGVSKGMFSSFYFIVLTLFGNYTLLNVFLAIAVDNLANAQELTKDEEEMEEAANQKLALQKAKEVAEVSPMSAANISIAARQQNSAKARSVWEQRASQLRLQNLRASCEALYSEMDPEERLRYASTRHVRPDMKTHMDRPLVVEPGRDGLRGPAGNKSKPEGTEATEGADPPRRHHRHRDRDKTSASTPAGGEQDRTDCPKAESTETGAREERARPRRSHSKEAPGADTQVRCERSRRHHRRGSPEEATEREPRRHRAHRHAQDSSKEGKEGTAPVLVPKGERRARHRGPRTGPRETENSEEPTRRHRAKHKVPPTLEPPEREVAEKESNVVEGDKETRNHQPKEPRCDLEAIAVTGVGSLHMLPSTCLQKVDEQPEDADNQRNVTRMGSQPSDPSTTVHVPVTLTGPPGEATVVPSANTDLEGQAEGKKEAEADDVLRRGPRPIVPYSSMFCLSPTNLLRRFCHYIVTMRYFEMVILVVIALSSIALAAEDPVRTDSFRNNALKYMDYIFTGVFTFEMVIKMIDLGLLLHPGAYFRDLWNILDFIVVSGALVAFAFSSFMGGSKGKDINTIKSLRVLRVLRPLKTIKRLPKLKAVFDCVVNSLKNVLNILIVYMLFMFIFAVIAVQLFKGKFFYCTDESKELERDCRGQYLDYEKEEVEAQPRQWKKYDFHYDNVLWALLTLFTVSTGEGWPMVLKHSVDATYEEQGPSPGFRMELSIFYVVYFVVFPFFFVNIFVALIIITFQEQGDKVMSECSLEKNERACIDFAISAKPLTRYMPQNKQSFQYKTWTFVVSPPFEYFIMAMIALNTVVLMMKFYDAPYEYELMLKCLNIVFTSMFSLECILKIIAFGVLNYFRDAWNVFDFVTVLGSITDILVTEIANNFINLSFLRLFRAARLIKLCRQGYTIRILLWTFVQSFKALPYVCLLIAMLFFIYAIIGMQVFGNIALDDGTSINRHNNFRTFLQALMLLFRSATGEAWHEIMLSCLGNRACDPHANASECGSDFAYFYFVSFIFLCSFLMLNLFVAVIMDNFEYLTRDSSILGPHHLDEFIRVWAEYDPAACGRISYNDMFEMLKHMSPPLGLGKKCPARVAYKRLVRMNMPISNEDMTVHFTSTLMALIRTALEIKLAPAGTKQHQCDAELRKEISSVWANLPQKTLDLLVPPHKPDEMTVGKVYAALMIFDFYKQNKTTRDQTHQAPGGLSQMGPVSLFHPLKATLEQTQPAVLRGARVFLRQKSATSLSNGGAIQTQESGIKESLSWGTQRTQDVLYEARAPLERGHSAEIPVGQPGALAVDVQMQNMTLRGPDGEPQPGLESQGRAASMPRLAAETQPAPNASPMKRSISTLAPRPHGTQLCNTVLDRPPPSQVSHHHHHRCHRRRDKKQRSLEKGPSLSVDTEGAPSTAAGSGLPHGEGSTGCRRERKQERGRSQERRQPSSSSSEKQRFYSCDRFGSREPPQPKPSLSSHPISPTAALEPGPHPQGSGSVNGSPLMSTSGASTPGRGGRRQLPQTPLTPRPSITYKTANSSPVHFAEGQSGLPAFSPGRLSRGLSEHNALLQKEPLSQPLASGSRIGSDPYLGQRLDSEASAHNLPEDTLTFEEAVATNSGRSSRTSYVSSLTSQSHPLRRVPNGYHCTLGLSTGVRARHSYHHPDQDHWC
T1 sequence (P54290 25-944 partner limits assumed): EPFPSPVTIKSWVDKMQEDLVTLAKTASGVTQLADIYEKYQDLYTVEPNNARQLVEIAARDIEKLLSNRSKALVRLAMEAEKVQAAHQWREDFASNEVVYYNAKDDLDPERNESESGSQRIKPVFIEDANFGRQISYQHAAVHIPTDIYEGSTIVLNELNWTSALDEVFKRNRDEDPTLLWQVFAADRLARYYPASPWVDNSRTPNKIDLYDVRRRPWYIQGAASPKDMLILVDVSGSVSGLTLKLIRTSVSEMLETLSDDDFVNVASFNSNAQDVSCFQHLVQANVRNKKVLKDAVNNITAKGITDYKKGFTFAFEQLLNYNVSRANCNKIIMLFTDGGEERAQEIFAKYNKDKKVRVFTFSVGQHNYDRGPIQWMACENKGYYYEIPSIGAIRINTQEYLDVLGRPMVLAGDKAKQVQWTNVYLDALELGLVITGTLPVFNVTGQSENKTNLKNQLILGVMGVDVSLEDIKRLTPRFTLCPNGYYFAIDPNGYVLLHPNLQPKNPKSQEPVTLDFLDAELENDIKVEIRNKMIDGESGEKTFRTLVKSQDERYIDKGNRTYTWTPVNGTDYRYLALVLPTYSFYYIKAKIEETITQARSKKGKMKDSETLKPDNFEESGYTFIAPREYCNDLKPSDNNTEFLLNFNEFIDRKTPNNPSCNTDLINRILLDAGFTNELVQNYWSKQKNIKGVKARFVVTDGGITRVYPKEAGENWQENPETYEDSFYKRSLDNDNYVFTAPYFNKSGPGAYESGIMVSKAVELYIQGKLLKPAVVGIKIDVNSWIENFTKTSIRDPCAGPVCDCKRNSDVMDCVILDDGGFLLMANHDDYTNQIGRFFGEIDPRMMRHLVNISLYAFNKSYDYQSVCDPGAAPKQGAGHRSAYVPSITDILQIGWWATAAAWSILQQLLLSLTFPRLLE
T1 sequence (P54290 945-1091 partner limits assumed): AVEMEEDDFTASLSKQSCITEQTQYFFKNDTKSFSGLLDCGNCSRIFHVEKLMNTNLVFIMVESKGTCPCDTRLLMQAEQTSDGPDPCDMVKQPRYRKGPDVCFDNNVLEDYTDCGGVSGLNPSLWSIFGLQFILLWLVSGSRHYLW
T1 sequence (P54283 whole entry partner): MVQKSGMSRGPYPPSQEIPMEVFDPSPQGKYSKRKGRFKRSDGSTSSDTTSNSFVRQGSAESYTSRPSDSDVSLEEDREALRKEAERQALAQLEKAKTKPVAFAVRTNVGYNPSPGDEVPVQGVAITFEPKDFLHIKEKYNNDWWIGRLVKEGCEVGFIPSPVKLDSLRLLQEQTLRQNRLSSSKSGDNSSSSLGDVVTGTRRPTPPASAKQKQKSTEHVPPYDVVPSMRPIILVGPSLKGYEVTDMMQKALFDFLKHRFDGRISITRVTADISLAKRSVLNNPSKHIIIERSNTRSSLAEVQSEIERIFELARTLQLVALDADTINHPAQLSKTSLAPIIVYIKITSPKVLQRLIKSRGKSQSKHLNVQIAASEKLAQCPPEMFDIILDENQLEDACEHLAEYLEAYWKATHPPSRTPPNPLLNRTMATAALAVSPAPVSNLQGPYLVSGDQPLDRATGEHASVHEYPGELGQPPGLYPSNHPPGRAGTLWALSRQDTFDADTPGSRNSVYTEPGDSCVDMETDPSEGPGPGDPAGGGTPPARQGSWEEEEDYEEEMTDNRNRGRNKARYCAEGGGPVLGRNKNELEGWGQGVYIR

Structure (SMILES)	IC50 [1]	IC50 [2]
O=C(C1CC1C(=O)N1CCN(C(c2ccccc2)c2ccccc2)CC1)N1CCN(C(c2ccccc2)c2ccccc2)CC1 (centres unmarked) [Compound 1]	0.16 µM	0.15 µM
O=C(C1CC1C(=O)N1CCN(C(c2ccccc2)c2ccccc2)CC1)N1CCN(c2ccccc2)CC1 (centres unmarked) [Compound 2, (4-benzhydrylpiperazin-1-yl)(2-(4-phenylpiperazine-1-carbonyl)cyclopropyl)methanone]	0.44 µM	0.31 µM
CN1CCN(C(=O)C2CC2C(=O)N2CCN(C(c3ccccc3)c3ccccc3)CC2)CC1 (centres unmarked) [Compound 3, (4-benzhydrylpiperazin-1-yl)(2-(4-methylpiperazine-1-carbonyl)cyclopropyl)methanone]	2.5 µM	1.5 µM
O=C(C1CC1C(=O)N1CCN(C(c2ccccc2)c2ccccc2)CC1)N1CCC(N2CCOCC2)CC1 (centres unmarked) [Compound 4, (4-benzhydrylpiperazin-1-yl)(2-(4-morpholinopiperadine-1-carbonyl)cyclopropyl)methanone]	> 5.83 µM	> 3.95 µM
O=C(Nc1ccccc1)C1CC1C(=O)N1CCN(C(c2ccccc2)c2ccccc2)CC1 (centres unmarked) [Compound 6, 2-(4-benzhydrylpiperazine-1-carbonyl)-N-phenylcyclopropanecarboxamide]	3.2 µM	1.9 µM
COCCN1CCN(C(=O)C2CC2C(=O)N2CCN(C(c3ccccc3)c3ccccc3)CC2)CC1 (centres unmarked) [Compound 7]	2 µM	1.5 µM
O=C(C1CC1C(=O)N1CCN(C(c2ccccc2)c2ccccc2)CC1)N1CCN(c2ccccc2F)CC1 (centres unmarked) [Compound 8, (4-benzhydrylpiperazin-1-yl)(2-(4-(2-fluorophenyl)piperazine-1-carbonyl)cyclopropyl)methanone]	0.94 µM	0.53 µM
COc1ccccc1N1CCN(C(=O)C2CC2C(=O)N2CCN(C(c3ccccc3)c3ccccc3)CC2)CC1 (centres unmarked) [Compound 9, (4-benzhydrylpiperazin-1-yl)(2-(4-(2-methoxyphenyl)piperazine-1-carbonyl)cyclopropyl)methanone]	0.63 µM	0.43 µM
CC(NC(=O)C1CC1C(=O)N1CCN(C(c2ccccc2)c2ccccc2)CC1)c1ccccc1 (centres unmarked) [Compound 10, 2-(4-benzhydrylpiperazine-1-carbonyl)-N-(1-phenylethyl)cyclopropane carboxamide]	1.55 µM	0.97 µM
CC(C)(C)C1CCC(NC(=O)C2CC2C(=O)N2CCN(C(c3ccccc3)c3ccccc3)CC2)CC1 (centres unmarked) [Compound 11, 2-(4-benzhydrylpiperazine-1-carbonyl)-N-(4-tert-butylcyclohexyl)cyclopropane carboxamide]	0.09 µM	0.08 µM
CC1CCC(NC(=O)C2CC2C(=O)N2CCN(C(c3ccccc3)c3ccccc3)CC2)CC1 (centres unmarked) [Compound 12, 2-(4-benzhydrylpiperazine-1-carbonyl)-N-(4-methylcyclohexyl)cyclopropane carboxamide]	0.18 µM	0.12 µM

The remaining lines, values ahead:

IC50 [1]	IC50 [2]	Structure (SMILES)
0.71 µM	0.44 µM	CC1CN(C(=O)C2CC2C(=O)N2CCN(C(c3ccccc3)c3ccccc3)CC2)CC(C)N1 (centres unmarked) [Compound 13, (4-benzhydrylpiperazin-1-yl)(2-(3,5-dimethylpiperazine-1-carbonyl)cyclopropyl)methanone]
1.56 µM	0.86 µM	CC(C)N(C(=O)C1CC1C(=O)N1CCN(C(c2ccccc2)c2ccccc2)CC1)C(C)C (centres unmarked) [Compound 14, 2-(4-benzhydrylpiperazine-1-carbonyl)-N,N-diisopropylcyclopropane carboxamide]
8.53 µM	6.86 µM	CC(C)(C)N1CCN(C(=O)C2CC2C(=O)N2CCN(C(c3ccccc3)c3ccccc3)CC2)CC1 (centres unmarked) [Compound 15, (4-benzhydrylpiperazin-1-yl)(2-(4-tert-butylpiperazine-1-carbonyl)cyclopropyl) methanone]
12.5 µM	6.79 µM	CNC1CCN(C(=O)C2CC2C(=O)N2CCN(C(c3ccccc3)c3ccccc3)CC2)CC1 (centres unmarked) [Compound 16, (4-benzhydrylpiperazin-1-yl)(2-(4-(methylamino)piperadine-1-carbonyl)cyclopropyl)methanone]
0.69 µM	0.44 µM	CC1CCC(CN2CCN(C(=O)C3CC3C(=O)N3CCN(C(c4ccccc4)c4ccccc4)CC3)CC2)CC1 (centres unmarked) [Compound 18, (4-benzhydrylpiperazin-1-yl)(2-(4-((4-methylcyclohexyl)methyl)piperazine-1-carbonyl)cyclopropyl)methanone]
